In ChEMBL document CHEMBL4765281, “Development of a novel nitric oxide (NO) production inhibitor with potential therapeutic effect on chronic inflammation” (Eur J Med Chem, 2020) one finds inhibition and IC50 data, which are given here for 56 compounds.

pIC50: −log10 of the molar value.

For assay [1], the system named is RAW264.7. The experiment in a line: Inhibition of LPS-induced nitric oxide production in mouse RAW264.7 cells at 10 uM measured after 24 hrs by Griess reagent based assay relative to control. Format: functional. (The Griess reaction detects nitrite, a stable product of nitric oxide.)
The test system of assay [2] is RAW264.7. The experiment in a line: Inhibition of LPS-induced nitric oxide production in mouse RAW264.7 cells. Format: functional, cell-based.
Assay [3] has as its system RAW264.7. The experiment in a line: Inhibition of LPS-induced nitric oxide production in mouse RAW264.7 cells measured after 24 hrs by Griess reagent based assay. It counts as functional, cell-based. The conditions noted are these: RAW264.7, 24 h.
Assay [4] deals with RAW264.7. Kind of assay: Cytotoxicity against mouse RAW264.7 cells assessed as reduction in cell viability measured after 24 hrs by MTT assay. Format: cell-based. The conditions noted are these: RAW264.7, 24 h. Background: Tetrazolium dyes change colour on reduction, which living cells bring about.

By inhibition is commonly meant the change of the read-out against control, counted positive when it falls. In assay [1], `COc1cc(O)c(C(=O)/C=C/c2ccc(OCCCN3CCN(C)CC3)c(OC)c2)c(OC)c1` showed an inhibition at 10 µM of 70.4%.
As to `COc1cc(O)c(C(=O)/C(F)=C/c2ccc(OC)c(OC)c2)c(OC)c1`, the inhibition at 10 µM in assay [1] was 62.6%.
For `COc1cccc(/C=C/C(=N\O)c2c(O)cc(OC)cc2OC)c1`, the inhibition at 10 µM in assay [1] came to 46.4%.
Broadly, the pIC50 is the IC50 on a negative log10 scale, so that one unit is a factor of ten. In the case of `COc1ccccc1C(=O)/C=C/c1ccc(Cl)c(Cl)c1`, the pIC50 in assay [2] is 5.15.
Turning to `COc1cc(O)c(C(=O)/C(C)=C/c2ccc(C)cc2)c(OC)c1`, 10 µM produced 56.8% inhibition in assay [1].
Regarding `COc1cccc(CCC(=O)c2c(O)cc(OC)cc2OC)c1`, in assay [1], 10 µM produced 52.2% inhibition.
Same read-out and setting: the figure for `COc1cc(O)c(C(=O)/C=C/c2ccc(OCCCN3CCCCC3)c(OC)c2)c(OC)c1` is 74.8%.
For the compound `O=C(/C=C/c1ccccc1O)c1ccsc1`, the pIC50 in assay [2] was 5.24.
On to `COc1cc(O)c(C(=O)/C=C/c2ccc(OCCCN3CCCC3)c(OC)c2)c(OC)c1`, for which the pIC50 was 5.19 in assay [3] and less than 4.40 in assay [4]. For the same compound, in assay [1], the inhibition at 10 µM was 83.1%.
In turn, `COc1ccc(/C=C(\F)C(=O)c2c(O)cc(OC)cc2OC)cc1` displayed an inhibition at 10 µM in assay [1] of 50.3%.
As to `COc1cc(O)c(C(=O)/C(F)=C/c2ccc(C)cc2)c(OC)c1`, in assay [1], testing at 10 µM gave an inhibition of 50.8%.
Consider `COc1cc(O)c(C(=O)/C=C/c2ccc(OC)c(Br)c2)c(OC)c1`, for which, in assay [1], at 10 µM the inhibition was 73.8%.
Regarding `COc1ccc(/C=C/C(=O)c2c(O)cc(OC)cc2OC)cc1` [FLAVOKAWAIN A], the inhibition at 10 µM in assay [1] was found to be 79.5%.
As for `COc1ccc(OC)c(/C=C(\F)C(=O)c2c(O)cc(OC)cc2OC)c1`, testing at 10 µM in assay [1] gave an inhibition of 42.6%.
In the case of `COc1cc(O)c(C(=O)/C=C/c2ccc(C)cc2)c(OC)c1`, the figures for the pIC50 in assay [3] and in assay [4] were 5.20 and less than 4.40, respectively. This compound registered an inhibition at 10 µM in assay [1] of 82.1%.
In assay [1], `COc1cc(O)c(C(=O)/C=C/c2ccc(OC)c(OC)c2)c(OC)c1` yielded an inhibition at 10 µM of 78.7%.
In assay [1], `COc1cc(O)c(C(=O)/C=C/c2ccc(O)cc2)c(OC)c1` [FLAVOKAWAIN C] showed an inhibition at 10 µM of 66.8%.
In assay [1], `COc1cc(O)c(C(=O)/C=C/c2ccc(OCCO)cc2)c(OC)c1` returned an inhibition at 10 µM of 73.6%.
Regarding `O=c1cc(-c2ccc(O)c(O)c2)oc2cc(O)cc(O)c12` [LUTEOLIN], the pIC50 in assay [3] is 5.04; in assay [4] it was less than 4.40. In assay [1], this compound displayed an inhibition at 10 µM of 54.6%.
The compound `COc1cc(O)c(C(=O)/C(F)=C/c2ccc(O)cc2)c(OC)c1` gave an inhibition at 10 µM in assay [1] of 70%.
In the case of `CC1(C)C=Cc2cc(/C=C/C(=O)c3ccc(O)cc3O)ccc2O1`, the negative logarithm of the IC50 (pIC50) in assay [2] was 5.66.
In assay [2], `CC1(C)C=Cc2cc(C(=O)/C=C/c3ccc(O)cc3)c(O)cc2O1` [4-HYDROXYISOLONCHOCARPIN] showed a negative-log IC50 (pIC50) of 5.62.
Still for that read-out and setting: the figure for `COc1cccc(OC)c1C(=O)/C=C/c1ccc(N(C)C)cc1` is 6.22.
`COc1cc(O)c(C(=O)/C=C/c2ccc(OCCCO)cc2)c(OC)c1` displayed an inhibition at 10 µM in assay [1] of 78.2%.
Take `COc1cc(O)c(C(=O)/C=C/c2cccnc2)c(OC)c1`: at 10 µM the inhibition in assay [1] was 78%.
For the compound `COc1cccc(O)c1C(=O)/C=C/c1cccc(Br)c1`, the negative-log IC50 (pIC50) in assay [2] was 5.11.
The compound `COc1cccc(/C=C(\C)C(=O)c2c(O)cc(OC)cc2OC)c1` displayed an inhibition at 10 µM in assay [1] of 68.3%.
Compound `COc1ccc(OC)c(/C=C/C(=O)c2c(O)cc(OC)cc2OC)c1` yielded an inhibition at 10 µM in assay [1] of 73.7%.
For `COc1cc(O)c(C(=O)/C=C/c2ccc(OC)c(O)c2)c(OC)c1`, in assay [1], the inhibition at 10 µM came out at 70.6%.
Still for that read-out and setting: under `COc1cc(O)c(C(=O)/C(C)=C/c2ccccc2)c(OC)c1` stands 57.5%.
Compound `COc1cc(/C=C/C(=O)c2ccc(F)cc2)cc(OC)c1OC` had a pIC50 in assay [2] of 7.48.
Consider `COc1cc(O)c(C(=O)/C=C/c2cc(OC)c(OC)cc2OC)c(OC)c1`, for which the inhibition at 10 µM in assay [1] came out at 78.4%.
The compound `COc1ccc(/C=C/C(=O)c2c(O)cc(OC)cc2OC)c(OC)c1` came in with an inhibition at 10 µM in assay [1] of 67.6%.
With `COc1ccc(/C=C/C(=O)c2ccc(OC)cc2O)cc1`, the inhibition at 10 µM in assay [1] was 70%.
`COc1cccc(C2CC(=O)c3c(OC)cc(OC)cc3O2)c1` (configuration not stated) registered an inhibition at 10 µM in assay [1] of 57.3%.
On to `COc1cc(O)c(C(=O)/C=C/c2ccccc2)c(OC)c1` [FLAVOKAWAIN B], for which the pIC50 in assay [3] was 5.38; in assay [4] it was 4.58. Also, testing at 10 µM in assay [1] gave an inhibition of 80.6%.
Turning to `COc1ccc(/C=C/C(=O)c2ccccc2O)cc1`, in assay [1], the inhibition at 10 µM came to 76.7%.
`COc1cc(O)c(C(=O)/C(F)=C/c2ccccc2)c(OC)c1` registered an inhibition at 10 µM in assay [1] of 47.4%.
On to `COc1cccc(/C=C/C(=O)c2ccc(OC)cc2O)c1`, for which the pIC50 in assay [3] was 5.49; in assay [4] it was 4.53. In assay [1], at 10 µM the inhibition was 82.5%.
On to `CC(C)=CCc1c(O)ccc(C(=O)/C=C/c2ccc(O)cc2)c1O` [ISOBAVACHALCONE], for which, in assay [2], the pIC50 is 5.80.
In turn, `COc1cc(C(=O)/C=C/c2cc(OC)c(OC)c(OC)c2)ccc1O` gave a negative logarithm of the IC50 (pIC50) in assay [2] of 5.38.
Take `COc1cccc(O)c1C(=O)/C=C/c1ccccc1`: the pIC50 in assay [2] is 5.02.
`COc1cccc(/C=C(\F)C(=O)c2c(O)cc(OC)cc2OC)c1` returned an inhibition at 10 µM in assay [1] of 58.1%.
The compound `COc1cc(O)c(C(=O)/C=C/c2ccc(Br)cc2)c(OC)c1` came in with an inhibition at 10 µM in assay [1] of 70.2%.
In assay [2], `COc1cccc(C(=O)/C=C/c2cc(OC)c(OC)c(OC)c2)c1` gave a pIC50 of 5.54.
As for `CCOc1cc(OC)cc(OC)c1C(=O)/C=C/c1cccc(OC)c1`, the pIC50 in assay [3] is 5.57; in assay [4], 4.47. The inhibition at 10 µM in assay [1] was 85.6%.
Consider `COc1cc(O)c(C(=O)/C=C/c2ccc3c(c2)OCO3)c(OC)c1`, for which, in assay [1], the inhibition at 10 µM came to 70%.
Compound `COc1cc(O)c(C(=O)/C=C/c2ccc([N+](=O)[O-])cc2)c(OC)c1` yielded an inhibition at 10 µM in assay [1] of 35.4%.
`COc1ccc(/C=C(\C)C(=O)c2c(O)cc(OC)cc2OC)cc1` displayed an inhibition at 10 µM in assay [1] of 41.6%.
For the compound `CC(C)=CCc1cc(C(=O)/C=C/c2ccc(O)c(O)c2)c(O)cc1O` [BROUSSOCHALCONE A], the pIC50 in assay [2] was 4.95.
With `COc1cc(O)c(C(=O)/C=C/c2cc(OC)c(OC)c(OC)c2)c(OC)c1`, the inhibition at 10 µM in assay [1] turned out to be 77.4%.
Take `COc1cccc(/C=C/C(=O)c2c(OC)cc(OC)cc2OC(C)=O)c1`: the pIC50 in assay [3] was 5.44; in assay [4], 4.51. The same compound yielded an inhibition at 10 µM in assay [1] of 84.6%.
In assay [2], `CC1(C)C=Cc2c(ccc(C(=O)/C=C/c3ccc(O)cc3)c2O)O1` showed a pIC50 of 4.99.
As for `COc1cccc(/C=C/C(=O)c2c(O)cc(OC)cc2OC)c1`, the values for the pIC50 in assay [3] and in assay [4] were 5.62 and 4.47, respectively. Further, in assay [1], at 10 µM the inhibition was 86.9%.
As for `COc1ccc(OC)c(C(=O)/C=C/c2ccc(N(C)C)cc2)c1`, the pIC50 in assay [2] is 6.15.
In assay [1], `COc1cc(O)c(C(=O)/C=C/c2cc(OC)c(OC)c([N+](=O)[O-])c2)c(OC)c1` came in with an inhibition at 10 µM of 30.8%.
